{"source": "paper PMC10873978", "about": "“Novel tetrahydroisoquinolines as DHFR and CDK2 inhibitors: synthesis, characterization, anticancer activity and antioxidant properties” (BMC Chemistry, 2024)", "key": {"Eef2 kinase": {"molecular_target": "Eef2 kinase (Homo sapiens, UniProt O00418)", "test": "Eef2 kinase inhibition", "assay_type": "biochemical"}, "MCF7 cell line": {"system": "MCF7 cell line", "test": "In vitro cytotoxic activity, MTT method, MCF7", "assay_type": "cell-based, human", "description": "(§1) Cell lines: The in vitro human breast cancerous cell line (MCF7), lung cancerous cell lines (A549) and normal cell lines were purchased from Serum and Vaccine formulation in Cairo-Egypt.\n(§2) In vitro cytotoxic activity of all synthesized compounds against two human breast cell line (MCF7) and lung cell lines (A549) was evaluated according to the MTT method. Firstly, Growth the cell line medium in 96 well tissue culture plate was injected with 10^5 cells/mL (100 uL/plate well) of the cell line and incubated at 37 °C for 24 h to develop a monolayer sheet then the formed growth medium was poured from 96 well microtiter plates after the confluent sheet of cells. […] Secondly, add 0.1 mL of each concentration tetrahydroisoquinoline sample to each plate. The plates were incubated at 37 °C. Thirdly MTT solution (5 mg/mL in PBS) is prepared. Add 20 µL of MTT solution to each well plates. And shaking in 150 rpm for 5 min, to mix the MTT into the media. Then incubate at (37 °C, 5% CO2) for 1–5 h. Finally read the optical density at 560 nm and subtract background at 620 nm.\n(§3) In this work, doxorubicin was used as a positive control drug for comparison with the synthesized compounds under the same experimental conditions."}, "A549 cell line": {"system": "A549 cell line", "test": "In vitro cytotoxic activity, MTT method, A549", "description": "as §1, §2, §3"}, "[1]": {"test": "DPPH scavenging antioxidant activity", "description": "The antioxidant activity of ten compounds was determined using DPPH [32–34]. A solution 1: prepared by dissolving DPPH (0.002 g) in ethanol (50 mL etnanol). Solution 2: prepared by dissolving different weights 0.05, 0.01 g of each sample in 1 mL of DMSO then take 10 µL of each sample solution with 1 mL ethanol. Then mix 1 mL of solution 1 with 1 mL of solution 2 then vortex the resulting mixture in the dark for about 30 min. The absorbance of the mixture was measured by spectrophotometer at λmax = 517 nm against blank 1 mL absolute ethanol and compared to the ascorbic acid (Vitamin C).\nTen newly synthesized compounds were studied as in vitro antioxidants by measuring of their DPPH scavenging activity which is represented as a percentage % [32]^. Results are represented by mean ± SD of three replicates. […] The higher dose concentration of 0.05 μg/mL represents higher antioxidant activity. […] The high antioxidant activity is referred to the presence of C=O, NH2, and OH groups like ascorbic acid which can be easily oxidized and reduced and can be used as antioxidant drugs. (Fig. 8 and Table 9)."}}, "data": [{"smiles": "CCCCCCCCCCCCCCCCn1cc[n+](Cc2ccccc2)c1C.[I-]", "note": "[NH125, reference compound]", "values": [{"measurement": "%inh", "setting": "Eef2 kinase; Eef2, conc 0.01 (log -2)", "result": 20.1, "unit": "%"}, {"measurement": "%inh", "setting": "Eef2 kinase; Eef2, conc 0.1 (log -1)", "result": 33.9, "unit": "%"}, {"measurement": "%inh", "setting": "Eef2 kinase; Eef2, conc 1 (log 0)", "result": 62.7, "unit": "%"}, {"measurement": "%inh", "setting": "Eef2 kinase; Eef2, conc 10 (log 1)", "result": 84.3, "unit": "%"}, {"measurement": "%inh", "setting": "Eef2 kinase; Eef2, conc 100 (log 2)", "result": 92.6, "unit": "%"}]}, {"smiles": "CC(=O)c1ccc(NC(=O)CSc2nc(C)c3c(c2C#N)CC(C)(O)C(C(C)=O)C3c2ccc(N(C)C)cc2)cc1", "note": "(stereo not shown) [Compound 7d, 2-[(7-Acetyl-4-cyano-1,6-dimethyl-6-hydroxy-8-(4-N,N-dimethylamino-phenyl)-5,6,7,8-tetrahydroisoquinolin-3-yl)thio]-N-(4-acetylphenyl)acetamide]", "values": [{"measurement": "IC50", "setting": "MCF7 cell line; Homo sapiens, MCF7, MCF7 cell line, MTT", "result": "495 ± 2", "unit": "nM"}, {"measurement": "Toxicity %", "setting": "MCF7 cell line; MCF7, 0.0487 µMol", "result": 1.8855, "unit": "%"}, {"measurement": "Viability %", "setting": "MCF7 cell line; MCF7, 0.0487 µMol", "result": 98.2255, "unit": "%"}, {"measurement": "Toxicity %", "setting": "MCF7 cell line; MCF7, 0.0975 µMol", "result": 3.5566, "unit": "%"}, {"measurement": "Viability %", "setting": "MCF7 cell line; MCF7, 0.0975 µMol", "result": 96.5544, "unit": "%"}, {"measurement": "Toxicity %", "setting": "MCF7 cell line; MCF7, 0.195 µMol", "result": 5.106, "unit": "%"}, {"measurement": "Viability %", "setting": "MCF7 cell line; MCF7, 0.195 µMol", "result": 94.89, "unit": "%"}, {"measurement": "Toxicity %", "setting": "MCF7 cell line; MCF7, 0.391 µMol", "result": 28.72, "unit": "%"}, {"measurement": "Viability %", "setting": "MCF7 cell line; MCF7, 0.391 µMol", "result": 71.28, "unit": "%"}, {"measurement": "Toxicity %", "setting": "MCF7 cell line; MCF7, 0.781 µMol", "result": 52.53, "unit": "%"}, {"measurement": "Viability %", "setting": "MCF7 cell line; MCF7, 0.781 µMol", "result": 47.47, "unit": "%"}, {"measurement": "Toxicity %", "setting": "MCF7 cell line; MCF7, 1.562 µMol", "result": 65.69, "unit": "%"}, {"measurement": "Viability %", "setting": "MCF7 cell line; MCF7, 1.562 µMol", "result": 34.31, "unit": "%"}, {"measurement": "Toxicity %", "setting": "MCF7 cell line; MCF7, 3.125 µMol", "result": 76.63, "unit": "%"}, {"measurement": "Viability %", "setting": "MCF7 cell line; MCF7, 3.125 µMol", "result": 23.37, "unit": "%"}, {"measurement": "Toxicity %", "setting": "MCF7 cell line; MCF7, 6.25 µMol", "result": 94.04, "unit": "%"}, {"measurement": "Viability %", "setting": "MCF7 cell line; MCF7, 6.25 µMol", "result": 5.964, "unit": "%"}, {"measurement": "Toxicity %", "setting": "MCF7 cell line; MCF7, 12.5 µMol", "result": 96.65, "unit": "%"}, {"measurement": "Viability %", "setting": "MCF7 cell line; MCF7, 12.5 µMol", "result": 3.35, "unit": "%"}, {"measurement": "Toxicity %", "setting": "MCF7 cell line; MCF7, 25 µMol", "result": 96.73, "unit": "%"}, {"measurement": "Viability %", "setting": "MCF7 cell line; MCF7, 25 µMol", "result": 3.268, "unit": "%"}, {"measurement": "Toxicity %", "setting": "A549 cell line; A549, Conc. 0.04875 µMol", "result": 1.982, "unit": "%"}, {"measurement": "Viability %", "setting": "A549 cell line; A549, Conc. 0.04875 µMol", "result": 98.02, "unit": "%"}, {"measurement": "Toxicity %", "setting": "A549 cell line; A549, Conc. 0.0975 µMol", "result": 2.4569, "unit": "%"}, {"measurement": "Viability %", "setting": "A549 cell line; A549, Conc. 0.0975 µMol", "result": 97.5431, "unit": "%"}, {"measurement": "Toxicity %", "setting": "A549 cell line; A549, Conc. 0.195 µMol", "result": 3.708, "unit": "%"}, {"measurement": "Viability %", "setting": "A549 cell line; A549, Conc. 0.195 µMol", "result": 96.29, "unit": "%"}, {"measurement": "Toxicity %", "setting": "A549 cell line; A549, Conc. 0.391 µMol", "result": 36.8, "unit": "%"}, {"measurement": "Viability %", "setting": "A549 cell line; A549, Conc. 0.391 µMol", "result": 63.2, "unit": "%"}, {"measurement": "Toxicity %", "setting": "A549 cell line; A549, Conc. 0.781 µMol", "result": 53.89, "unit": "%"}, {"measurement": "Viability %", "setting": "A549 cell line; A549, Conc. 0.781 µMol", "result": 46.11, "unit": "%"}, {"measurement": "Toxicity %", "setting": "A549 cell line; A549, Conc. 1.562 µMol", "result": 70.45, "unit": "%"}, {"measurement": "Viability %", "setting": "A549 cell line; A549, Conc. 1.562 µMol", "result": 29.55, "unit": "%"}, {"measurement": "Toxicity %", "setting": "A549 cell line; A549, Conc. 3.125 µMol", "result": 77.08, "unit": "%"}, {"measurement": "Viability %", "setting": "A549 cell line; A549, Conc. 3.125 µMol", "result": 22.92, "unit": "%"}, {"measurement": "Toxicity %", "setting": "A549 cell line; A549, Conc. 6.25 µMol", "result": 86.79, "unit": "%"}, {"measurement": "Viability %", "setting": "A549 cell line; A549, Conc. 6.25 µMol", "result": 13.21, "unit": "%"}, {"measurement": "Toxicity %", "setting": "A549 cell line; A549, Conc. 12.5 µMol", "result": 92.98, "unit": "%"}, {"measurement": "Viability %", "setting": "A549 cell line; A549, Conc. 12.5 µMol", "result": 7.022, "unit": "%"}, {"measurement": "Toxicity %", "setting": "A549 cell line; A549, Conc. 25 µMol", "result": 96.61, "unit": "%"}, {"measurement": "Viability %", "setting": "A549 cell line; A549, Conc. 25 µMol", "result": 3.393, "unit": "%"}, {"measurement": "IC50", "setting": "A549 cell line; Homo sapiens, read-out: IC50 ± SD", "result": "446 ± 4", "unit": "nM"}, {"measurement": "DPPH scavenging, inhibition (%)", "setting": "[1]; 0.01 µg/mL", "result": "48.08 ± 0.87", "unit": "%"}, {"measurement": "DPPH scavenging, inhibition (%)", "setting": "[1]; 0.05 µg/mL", "result": "69.73 ± 0.73", "unit": "%"}]}]}
